Reference: US20040005537A1, “Method of identifying toxic agents using differential gene expression” (priority 2000, published 2004)

System: rat heart tissue
Experiment: GENECALLING differential gene expression analysis after dosing of serotonin modulating agents
Assay type: in vivo, Sprague Dawley rats
Method in brief: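 Rats dosed with serotonin modulating agents, controls given sterile water or canola oil; tissue taken 24 h after the last dose. Total RNA converted to cDNA and profiled by GENECALLING differential expression analysis; fragments changed more than ±1.5-fold were selected.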

SMILES: CNS(=O)(=O)Cc1ccc2[nH]cc(CCN(C)C)c2c1 [sumatriptan]
- Effects on Transcription Level: Novel gene fragment, 524 bp, 86% SI to mouse F-box protein FBX6b [AF176526] (CARDIOTOX 1): +1.5 fold
- Effects on Transcription Level: Novel gene fragment, 306 bp, 91% SI to mouse low density lipoprotein receptor related protein 4 [AB013874] (CARDIOTOX 2): −1.6 fold
- Effects on Transcription Level: Novel gene fragment, 540 bp, 97% SI to mouse skeletal muscle alpha-actin [X03766] (CARDIOTOX 3): +2.4 fold
- Effects on Transcription Level: Novel gene fragment, 80 bp (CARDIOTOX 4): −1.4 fold
- Effects on Transcription Level: Novel gene fragment, 957 bp, 99% SI to kidney injury associated moleculer HW036 [V80591] (CARDIOTOX 5): −1.6 fold
- Effects on Transcription Level: Novel gene fragment, 282 bp, 85% SI to human KIAA1515 protein [AB040948] (CARDIOTOX 6): −1.7 fold
- Effects on Transcription Level: Novel gene fragment, 405 bp, 88% SI to human 2-oxoglutarate dehydrogenase [D10523] (CARDIOTOX 7): +1.5 fold
- Effects on Transcription Level: UCP2 (CARDIOTOX 8, GenBank AB010743): −1.6 fold
- Effects on Transcription Level: Plasma membrane Ca2 + ATPase-isoform 1 (CARDIOTOX 9, GenBank J03753): −1.6 fold
- Effects on Transcription Level: Novel gene fragment, 242 bp, 97% SI to mouse HSP86 heat-shock protein [X16857] (CARDIOTOX 10): +1.4 fold
- Effects on Transcription Level: Novel gene fragment, 280 bp, 65% SI to human TRF1-interacting, ankyrin-related ADP-ribose polymerase [AF082556] (CARDIOTOX 11): +1.4 fold
- Effects on Transcription Level: Novel gene fragment, 348 bp, 88% SI to mouse Sec61 protein complex gamma subunit [U11027] (CARDIOTOX 12): +1.3 fold
- Effects on Transcription Level: Novel gene fragment 553 bp, 93% SI to mouse Sid329 [AB024984] (CARDIOTOX 13): +1.4 fold
- Effects on Transcription Level: Kruppel-like transcription factor (CARDIOTOX 14, GenBank AB020759): +1.3 fold
- Effects on Transcription Level: Ribosomal protein L3 (CARDIOTOX 15, GenBank X62166): +1.4 fold
- Effects on Transcription Level: Glucose-regulated protein (GRP) 75 (CARDIOTOX 16, GenBank S78556): +1.4 fold
- Effects on Transcription Level: Immunoglobulin heavy chain binding protein (BiP) (CARDIOTOX 17, GenBank M14050): +1.4 fold
- Effects on Transcription Level: Membrane-spannining proteoglycan NG2 (CARDIOTOX 18, GenBank X56541): −1.5 fold
- Effects on Transcription Level: Novel gene fragment, 1294 bp, 96% SI to mouse Sui 1 (elF) homolog [AF129888] (CARDIOTOX 19): +1.6 fold
- Effects on Transcription Level: Novel gene fragment, 723 bp, 85% SI to human translation initiation factor elF3 p40 subunit [U54559] (CARDIOTOX 20): +1.6 fold
- Effects on Transcription Level: Novel gene fragment, 1324 bp, 76% SI to human flavoprotein subunit of complex II [D30648] (CARDIOTOX 21): +1.5 fold
- Effects on Transcription Level: Novel gene fragment, 852 bp, 81% SI to human vacuolar proton-ATPase subunit M9.2 [Y15286] (CARDIOTOX 22): +1.5 fold
- Effects on Transcription Level: Novel gene fragment, 178 bp, 91% SI to mouse myosin light chain-2 isoform MLC-2a [S70785] (CARDIOTOX 23): +1.4 fold
- Effects on Transcription Level: Novel gene fragment, 167 bp, 90% SI to mouse Rab20 [X80332] (CARDIOTOX 24): +1.9 fold
- Effects on Transcription Level: Novel gene fragment, 1070 bp, 80% SI to human muscle-specific protein [AF249873] (CARDIOTOX 25): +1.5 fold
- Effects on Transcription Level: Novel gene fragment, 1143 bp, 82% SI to human sarcoma amplified sequence (SAS) [U01160] (CARDIOTOX 26): +1.7 fold
- Effects on Transcription Level: Novel gene fragment, 74 bp,75% SI to human secreted protein [X30160] (from patent database)/[X97578] (from patent database)/potential cytokine) (CARDIOTOX 27): +1.5 fold
- Effects on Transcription Level: Novel gene fragment, 408 bp, 90% SI to human CGI-07 protein [AF132941] (CARDIOTOX 28): +1.6 fold
- Effects on Transcription Level: Novel gene fragment, 618 bp, 95% SI to rat progression related cDNA, ZNPE-120 3′ end partial sequence [patent database X90805] (CARDIOTOX 29): +1.5 fold
- Effects on Transcription Level: Novel gene fragment, 717 bp (CARDIOTOX 30): +1.5 fold
- Effects on Transcription Level: Novel gene fragment, 546 bp (CARDIOTOX 31): +1.8 fold
- Effects on Transcription Level: Novel gene fragment, 920 bp, 91% SI to human HSPC061 [AF161546] (CARDIOTOX 32): +1.5 fold
- Effects on Transcription Level: Novel gene fragment, 203 bp, 92% SI to rabbit sarcoplasmic reticulum glycoprotein [J04480] (CARDIOTOX 33): −1.7 fold
- Effects on Transcription Level: Novel gene fragment, 178 bp, 68% SI to mouse IgG receptor (beta-Fc-gamma-RII)[M63159] (CARDIOTOX 34): +1.4 fold
- Effects on Transcription Level: Ribosomal protein L6 (CARDIOTOX 35, GenBank X87107): +1.6 fold
- Effects on Transcription Level: CAP2 protein (adenylyl cyclase-associated protein 2) (CARDIOTOX 36, GenBank U31935): +2.0 fold
- Effects on Transcription Level: Alpha-platelet-derived growth factor receptor (CARDIOTOX 37, GenBank M63837): +1.6 fold
- Effects on Transcription Level: Rab GD1 alpha protein (CARDIOTOX 38, GenBank X74402): −1.6 fold
- Effects on Transcription Level: PKC-zeta-interacting protein (CARDIOTOX 39, GenBank Y08355): +1.6 fold
- Effects on Transcription Level: ERK or MAP kinase (CARDIOTOX 40, GenBank X65198): +1.5 fold
- Effects on Transcription Level: Peroxisomal multifunctional enzyme type II (CARDIOTOX 41, GenBank U37486): +1.5 fold
- Effects on Transcription Level: HBP23 (heme-binding protein 23 kDa) (CARDIOTOX 42, GenBank D30035): +1.7 fold
- Effects on Transcription Level: Caveolae-associated protein (CARDIOTOX 43, GenBank U90725): +3.1 fold
- Effects on Transcription Level: Prenylated rab acceptor 1 (PRA1) (CARDIOTOX 44, GenBank AF025506): +1.5 fold
- Effects on Transcription Level: Novel gene fragment, 337 bp, 88% SI to rabbit cardiac ryanodine receptor (RyR-2)[U50465] (CARDIOTOX 45): −1.5 fold
- Effects on Transcription Level: Novel gene fragment, 81 bp, 85% SI to human titin [X90568] (CARDIOTOX 46): −2.2 fold
- Effects on Transcription Level: Novel gene fragment, 428 bp, 86% SI to human titin [X90568] (CARDIOTOX 47): −2.0 fold
- Effects on Transcription Level: Novel gene fragment, 374 bp, 88% SI to human titin [X90568] (CARDIOTOX 48): −2.3 fold
- Effects on Transcription Level: Novel gene fragment, 428 bp, 85% SI to human titin [90568] (CARDIOTOX 49): −2.2 fold
- Effects on Transcription Level: Novel gene fragment, 1216 bp, 93% SI to mouse mircotubule-associated protein (MAP) 1B protein [AF115776] (CARDIOTOX 50): 1 fold
- Effects on Transcription Level: Novel gene fragment, 1115 bp, 83% SI to human KIAA0549 protein [AB011121] (CARDIOTOX 51): −2.1 fold
- Effects on Transcription Level: Novel gene fragment, 153 bp (CARDIOTOX 52): −1.7 fold
- Effects on Transcription Level: Novel gene fragment, 89 bp, 93% SI to human putative glialblastoma cell differentiation-related protein (GBDR1) [AF068195] (CARDIOTOX 53): +1.6 fold
- Effects on Transcription Level: Rho-associated kinase beta (CARDIOTOX 54, GenBank U61266): −1.10 fold
- Effects on Transcription Level: Adenylate kinase 3 (CARDIOTOX 55, GenBank D13062): +1.5 fold
- Effects on Transcription Level: Amyloid beta-peptide binding protein (CARDIOTOX 56, GenBank AF049878): +1.5 fold
- Effects on Transcription Level: Mitochondrial adenine nuleotide translocator (CARDIOTOX 57, GenBank D12771): +1.5 fold
- Effects on Transcription Level: Novel gene fragment, 710 bp, 94% SI to mouse chromatin structural protein homolog Supt5 hp (Supt5 h)[U88539] (CARDIOTOX 58): +3.0 fold
- Effects on Transcription Level: Novel gene fragment, 186 bp, 66% SI to human N-acetylglucosaminyltransferase 1 (GlcNAc-TI)[M55621] (CARDIOTOX 60): −1.8 fold
- Effects on Transcription Level: Novel gene fragment, 238 bp, 95% SI to mouse MAP kinase-activated protein kinase 2 [X76850] (CARDIOTOX 61): −2.7 fold
- Effects on Transcription Level: Novel gene fragment, 173 bp, 70% SI to G protein-coupled receptor kinase GRK4 [X97568] (CARDIOTOX 62): −6.11 fold
- Effects on Transcription Level: Novel gene fragment, 133 bp, 77% SI to human apoptosis related protein hSARP3 [patent database: V19114] (CARDIOTOX 63): −3.2 fold
- Effects on Transcription Level: Novel gene fragment, 477 bp, 98% SI to peroxisomal phytanoyl-CoA hydroxylase (PHYH) [AF121345] (CARDIOTOX 64): +5.1 fold
- Effects on Transcription Level: Novel gene fragment, 413 bp, 95% SI to mouse dihydrolipoamide dehydrogenase (Dld) [U73445] (CARDIOTOX 65): +1.10 fold
- Effects on Transcription Level: Novel gene fragment, 726 bp, 76% SI to human succinate dehydrogenase flavoprotein subunit (SDH) [L21936] (CARDIOTOX 66): −4.1 fold
- Effects on Transcription Level: Novel gene fragment, 440 bp, 92% SI to mouse cytochrome c oxidase Vllc [X52940] (CARDIOTOX 67): +3.7 fold
- Effects on Transcription Level: Novel gene fragment, 276 bp, 80% SI to human titin [X90568] (CARDIOTOX 68): −11.10 fold
- Effects on Transcription Level: Novel gene fragment, 149 bp, 70% SI to human titin [X90568] (CARDIOTOX 69): −5.6 fold
- Effects on Transcription Level: Novel gene fragment, 467 bp, 94% SI to mouse gelsolin [J04953] (CARDIOTOX 70): −3.2 fold
- Effects on Transcription Level: Novel gene fragment, 535 bp, 90% SI to mouse slow/cardiac troponin C [M29793] (CARDIOTOX 71): −2.1 fold
